Results published in patent US10646594B2, “Deuterated metabolic water precursor for detecting and treating diseased tissue” (CASE WESTERN RESERVE UNIVERSITY, priority 2009, dated 2020).

Legend:
[1] = DMR measurement of deuterated glucose metabolism in Tenebrio molitor larvae; type: in vivo; conditions: starved larvae fed bran wetted with aqueous deuterated glucose, 2H spectrum
Experimental: (§1) DMR measurements (AQ 0.2s; TR 0.3s; NS 128; LB 30; 38s/spectrum) were performed at 9.4 T on a wide bore (89 mm) Bruker Avance microimager equipped with a multinuclear probe. A set of experiments was performed on three male mice (C57/BL6) and another set, on Tenebrio molitor larvae. Mouse 1 (25 g), was injected iv with 8.9 mg deuterated glucose (ISOTEC) dissolved in 0.4 ml saline solution; it was sacrificed after 1.5 hr and, after dissection, its whole body (except fur and skin) was placed in a 20 mm NMR tube for running the DMR spectrum (shown in FIG. 4, upper trace). Mouse 2, (32 g) injected ip with the same amount of glucose-d7 as mouse 1 was sacrificed after 3.5 hr, and yielded the spectrum seen in the same FIG. 4, second trace. Tenebrio molitor larvae were starved for several days, then placed in a 20 mm NMR tube together with food consisting of 0.4 g bran wetted with an aqueous solution of deuterated glucose.
In our approach, the excellent tracer quality of deuterium (natural abundance 0.015%) is combined with the fact that only two well separated peaks are to be measured; that of nascent metabolic water, and that of the aliphatic chain of fatty acids. Thus, in spite of their large line widths (100-230 Hz) due to the electric quadrupole moment and unfavorable correlation times, the spectra can be interpreted in a quantitative manner. […]

[2] = DMR measurement of deuterated glucose metabolism in mice; type: in vivo, mice (C57/BL6); conditions: mice injected iv or ip with 8.9 mg deuterated glucose, whole-body DMR spectrum
Experimental: as §1

malignant cells = conditions: Kushner et al. 1999; cited from earlier work

SMILES | incorporation of D-label into fat [1] | metabolism of glucose into deuterated water ([1]; end of the experiment) | consumption of deuterated glucose ([2]; sacrificed after 1.5 hr or 3.5 hr) | metabolic fate of deuterated glucose (metabolic water / fat) [2] | toxicity to malignant cells compared with normal animal cells (malignant cells)
[2H]C1(O)O[C@]([2H])(C([2H])([2H])O)[C@@]([2H])(O)[C@]([2H])(O)[C@@]1([2H])O (stereo partly drawn) [deuterated glucose, D-7 Glucose[1,2,3,4,5,6,6-2H7]] | did not incorporate a visible amount of D-label into fat | all glucose was metabolized into deuterated water | all deuterated glucose was consumed by the mice | most of it provided protons for the formation of metabolic water, part of it was metabolized into fat | 
[2H]O[2H] [D2O] |  |  |  |  | more toxic to malignant cells than normal animal cells
